Columns and labels:
[1] = tested on: 9L Rat gliosarcoma cells; assay: in vitro amino acid uptake in 9L cells; type: cell-based
Description: (§1) Compounds have been evaluated in vitro for tumor binding specificity (i.e. uptake cells) using a variety of tumor cell lines available in the art, along with reference compounds such as Me-AlB and BCH. Detailed description of these assays can be found in Martarello et al. (2002) Journal of Medicinal Chemistry, 45:2250-2259 and McConathy et al. (2003) Nuclear Medicine and Biology, 30:477-490. These so called “amino acid uptake studies” are typically carried out with radiolabeled compounds in at least five phenotypically different human tumor cell lines (e.g., A549 lung carcinoma, MB468 breast carcinoma, DU145 prostate carcinoma-androgen independent, LnCap-androgen dependent, SKOV3 ovarian carcinoma, U87 glial blastoma, MIA PaCa-2 pancreas carcinoma, MDA MB231 breast carcinoma). These tumor cell lines can be grown either in vitro or in vivo with severe combined immunodeficiency (SCID) mice as a host. The afore-mentioned tumor cell lines are available at the Winship Cancer Institute of Emory University.
(§2) For the in vitro amino acid uptake studies, all cells can be grown to monolayer confluency in T-175 culture flasks [Corning, Corning, N.Y.] (approx. 1×10^8 cells/flask) in Dulbecco's Modified Eagle's Medium (DMEM) [Sigma, St. Louis, Mo.] in a humidified incubator (37° C., 5% CO2/95% air). […]
(§3) In the in vitro studies the uptake rate of each amino acid compound is measured in each tumor line, as well as the dominant transport mechanisms of each tumor cell line. After trypsinization, cells are resuspended in serum-free media, then counted on a hemocytometer, with viability assessed through Trypan blue staining. […] The vials are placed in a Cobra-II gamma counter (Packard, Meriden, Conn.), with the activity per cell number determined. […] Saline washes are performed as described above, and the filtered cells' radioactivity determined on the gamma counter. […]
(§4) The uptake of all compounds were measured in human and rat cancer cell lines and the dominant transport (“A” and “L”) mechanism of each culture were determined. […]

[2] = tested on: tumor cells; assay: overall conclusion of uptake studies in cancer cells in vitro; type: cell-based
Experimental: In the in vitro studies the uptake rate of each amino acid compound is measured in each tumor line, as well as the dominant transport mechanisms of each tumor cell line. After trypsinization, cells are resuspended in serum-free media, then counted on a hemocytometer, with viability assessed through Trypan blue staining. Approximately 1×10^7 cells are exposed to each compound (15 μCi) in 15 ml of amino acid free media for 5, 10, 15, 30 and 60 minutes at 37° C. Cells are then centrifuged at 150×g for 5 minutes, rinsed in 5 ml cold-saline, recentrifuged, resuspended in 3 ml saline, and placed into 12×75 mm glass vials (Fisher, Pittsburgh, Pa.). The vials are placed in a Cobra-II gamma counter (Packard, Meriden, Conn.), with the activity per cell number determined. Inhibition studies determine the dominant transport mechanism (L, A or ASC) for each line [Martarello et al. (2002) supra; McConathy et al. (2003) supra]. For these studies, cells are exposed to the compounds for 30 minutes in amino acid free media containing one of three inhibitors (2-amino-norbornyl-2-carboxylic acid (BCH), 10 mM; α-(methylamino)-isobutyric acid (MeAlB), 10 mM; and an alanine-serine-cysteine mixture 1:1:1 (acs), 10 mM). Saline washes are performed as described above, and the filtered cells' radioactivity determined on the gamma counter. Comparisons with the 30 minute control uptake indicate the major transporters used. Results of these studies are found in FIGS. 1-18.
Approximately 10^6 cells were exposed to the [^18F]amino acid candidate (5 μCi) in 3 ml of amino acid-free media±transporter inhibitors (10 mM) for 30 minutes under incubation conditions by the method previously described (McConathy, J.; Martarello, L.; Malveaux, E.; Camp, V.; Bowers, G.; Olson, J.; Goodman, M. (2002) Radiolabeled amino acids for tumor imaging with PET: radiosynthesis and biological evaluation of [^18F]2-amino-3-fluoro-2-methylpropanoic acid and [^18F]3-fluoro-2-methyl-2-(methylamino)-propanoic acid. J. Med. Chem. 45, 2240-2249). The inhibition studies determined the dominant transport mechanism (L, A) for each candidate PET amino acid for each tumor model. 2-Methylaminoisobutyric acid (MeAlB) and 2-aminobicyclo-[2.2.1]-heptane-2-carboxylic acid (BCH) serve as inhibitors for the “A”, “L” transport systems, respectively.

[3] = tested on: MDA MB468 Human Breast carcinoma cells; assay: in vitro amino acid uptake in MDA MB468 cells; type: cell-based
Description: as §1, §2, §3, §4

[4] = tested on: DU145 Human Prostate carcinoma cells; assay: in vitro amino acid uptake in DU145 cells; type: cell-based
Description: as §1, §2, §3, §4

[5] = tested on: A549, human lung cancer cells implanted in flanks; assay: tissue distribution in SCID mice bearing A549 tumors; type: in vivo; conditions: for tissue distribution, blood / tissue distribution, bone / tissue distribution, brain / tissue distribution, heart / tissue distribution, kidney / tissue distribution, liver / tissue distribution, lung / tissue distribution, muscle / tissue distribution, pancreas / tissue distribution, spleen / tissue distribution, tumor: A549 tumor-bearing SCID mice, tail vein, ave
Experimental: For the in vitro amino acid uptake studies, all cells can be grown to monolayer confluency in T-175 culture flasks [Corning, Corning, N.Y.] (approx. 1×10^8 cells/flask) in Dulbecco's Modified Eagle's Medium (DMEM) [Sigma, St. Louis, Mo.] in a humidified incubator (37° C., 5% CO2/95% air). Media are supplemented with 10% fetal calf serum [Hyclone, Logan, Utah], and antibiotics (10,000 U/ml penicillin and 10 mg/ml streptomycin) (Sigma, St. Louis, Mo.). For tissue culture passage, monolayer cells are detached by gentle trypsinization, resuspended in complete media, and split 1:10 into new T-flasks. Cultures are passaged weekly, and fed fresh media every 2 to 3 days. To initiate tumor growth in SCID mice, 1×10^6 cells are injected s.c. bilaterally into the flanks (inguinal region) of the recipient animals using a 1 ml syringe with a 27 gauge needle. Ex vivo experiments can be performed with animals containing tumors weighing between 500 mg and 1 g, as estimated by caliper measurement (tumor weight=(π/6)*abc, where a, b and c are the tumor length, width and height, respectively).
Tissue distribution of the compounds is measured in SCID mice (average weight, 20-25 g) bearing human tumors as follows. The candidate radioligands (20 uCi in 0.4 ml 0.9% NaCl) are injected into the tail vein of tumor-bearing mice. […] Tissues (blood, heart, liver, lungs, kidneys, bone, thyroid, muscle, brain and tumor) are excised, rinsed in saline, and blotted dry. The tissues are weighed, placed into 12×75 mm glass vials, the radioactivity determined with a gamma counter, and the percent dose/gram calculated. Total activities of blood and muscle are calculated by assuming that they account for 7% and 40% of the total body mass, respectively.
Tables 3-7 show the results of the biodistribution studies with the separate enantiomers of anti-2-[^18F]FACPC and racemic anti-2-[^18F]FACBC as a comparison in SCiD mice implanted in their flanks with A549, human lung cancer cells and DU145, human prostate cancer cells.

[6] = A549 cells implanted subcutaneously in flanks of SCID mice
[7] = 15 min, listed as Anti-2-[^18F]FACPC Enantiomer 1
[8] = 60 min, listed as Anti-2-[^18F]FACPC Enantiomer 1

Structure (SMILES): NC1(C(=O)O)CCC1[18F] (racemic) [racemic anti-2-[^18F]FACBC]
- % Dose uptake per 0.5 × 10−6 Cells [1]: 2.3 % Dose/0.5 × 10^−6
- selective uptake in tumor cells [2]: selectively taken up in tumor cells
- % Dose uptake per 0.5 × 10−6 Cells [3]: 7.4 % Dose/0.5 × 10^−6
- % Dose uptake per 0.5 × 10−6 Cells [4]: 6.4 % Dose/0.5 × 10^−6
- tissue distribution, blood ([5]; 15 min): 3.39 percent dose/gram
- tissue distribution, bone ([5]; 15 min): 2.07 percent dose/gram
- tissue distribution, brain ([5]; 15 min): 0.27 percent dose/gram
- tissue distribution, heart ([5]; 15 min): 2.71 percent dose/gram
- tissue distribution, kidney ([5]; 15 min): 10.12 percent dose/gram
- tissue distribution, liver ([5]; 15 min): 3.15 percent dose/gram
- tissue distribution, lung ([5]; 15 min): 4.23 percent dose/gram
- tissue distribution, muscle ([5]; 15 min): 1.38 percent dose/gram
- tissue distribution, pancreas ([5]; 15 min): 48.45 percent dose/gram
- tissue distribution, spleen ([5]; 15 min): 7.91 percent dose/gram
- tissue distribution, tumor ([5]; 15 min): 5.11 percent dose/gram
- tissue distribution, blood ([5]; 30 min): 2.43 percent dose/gram
- tissue distribution, bone ([5]; 30 min): 1.64 percent dose/gram
- tissue distribution, brain ([5]; 30 min): 0.26 percent dose/gram
- tissue distribution, heart ([5]; 30 min): 2.24 percent dose/gram
- tissue distribution, kidney ([5]; 30 min): 5.48 percent dose/gram
- tissue distribution, liver ([5]; 30 min): 2.70 percent dose/gram
- tissue distribution, lung ([5]; 30 min): 3.03 percent dose/gram
- tissue distribution, muscle ([5]; 30 min): 1.44 percent dose/gram
- tissue distribution, pancreas ([5]; 30 min): 44.17 percent dose/gram
- tissue distribution, spleen ([5]; 30 min): 5.03 percent dose/gram
- tissue distribution, tumor ([5]; 30 min): 4.29 percent dose/gram
- tissue distribution, blood ([5]; 60 min): 1.09 percent dose/gram
- tissue distribution, bone ([5]; 60 min): 1.02 percent dose/gram
- tissue distribution, brain ([5]; 60 min): 0.16 percent dose/gram
- tissue distribution, heart ([5]; 60 min): 1.41 percent dose/gram
- tissue distribution, kidney ([5]; 60 min): 2.25 percent dose/gram
- tissue distribution, liver ([5]; 60 min): 1.47 percent dose/gram
- tissue distribution, lung ([5]; 60 min): 1.40 percent dose/gram
- tissue distribution, muscle ([5]; 60 min): 0.90 percent dose/gram
- tissue distribution, pancreas ([5]; 60 min): 20.64 percent dose/gram
- tissue distribution, spleen ([5]; 60 min): 2.86 percent dose/gram
- tissue distribution, tumor ([5]; 60 min): 3.04 percent dose/gram
- tissue distribution, blood ([5]; 120 min): 0.41 percent dose/gram
- tissue distribution, bone ([5]; 120 min): 0.62 percent dose/gram
- tissue distribution, brain ([5]; 120 min): 0.15 percent dose/gram
- tissue distribution, heart ([5]; 120 min): 0.86 percent dose/gram
- tissue distribution, kidney ([5]; 120 min): 1.03 percent dose/gram
- tissue distribution, liver ([5]; 120 min): 0.59 percent dose/gram
- tissue distribution, lung ([5]; 120 min): 0.56 percent dose/gram
- tissue distribution, muscle ([5]; 120 min): 0.77 percent dose/gram
- tissue distribution, pancreas ([5]; 120 min): 9.80 percent dose/gram
- tissue distribution, spleen ([5]; 120 min): 1.48 percent dose/gram
- tissue distribution, tumor ([5]; 120 min): 2.30 percent dose/gram
- uptake of radioactivity in the tumors compared with muscle ([5]; A549 tumors, SCID mice, time points sampled post injection): greater than muscle

Structure (SMILES): N[C@]1(C(=O)O)CCC[C@@H]1[18F] (single isomer, unassigned; enantiomer 1) [Enantiomer 1, anti-2-[^18F]FACPC]
- % Dose uptake per 0.5 × 10−6 Cells [1]: 12 % Dose/0.5 × 10^−6
- selective uptake in tumor cells [2]: selectively taken up in tumor cells
- in vitro uptake in cancer cells compared with enantiomer 2 ([2]; in vitro in cancer cells): greater uptake than enantiomer 2
- % Dose uptake per 0.5 × 10−6 Cells [3]: 15 % Dose/0.5 × 10^−6
- % Dose uptake per 0.5 × 10−6 Cells [4]: 8 % Dose/0.5 × 10^−6
- in vivo uptake compared with enantiomer 2 [5, 6]: greater uptake than enantiomer 2
- in vivo uptake compared with racemic 2-[^18F]FACBC [5, 6]: significantly higher in vivo uptake than racemic 2-[^18F]FACBC
- tissue distribution, blood [5, 7]: 3.98 percent dose/gram
- tissue distribution, bone [5, 7]: 3.08 percent dose/gram
- tissue distribution, brain [5, 7]: 0.81 percent dose/gram
- tissue distribution, heart [5, 7]: 3.78 percent dose/gram
- tissue distribution, kidney [5, 7]: 8.0 percent dose/gram
- tissue distribution, liver [5, 7]: 4.01 percent dose/gram
- tissue distribution, lung [5, 7]: 4.09 percent dose/gram
- tissue distribution, muscle [5, 7]: 2.47 percent dose/gram
- tissue distribution, pancreas [5, 7]: 57.83 percent dose/gram
- tissue distribution, spleen [5, 7]: 12.52 percent dose/gram
- tissue distribution, tumor [5, 7]: 9.77 percent dose/gram
- tissue distribution, blood [5, 8]: 1.59 percent dose/gram
- tissue distribution, bone [5, 8]: 2.43 percent dose/gram
- tissue distribution, brain [5, 8]: 0.81 percent dose/gram
- tissue distribution, heart [5, 8]: 2.49 percent dose/gram
- tissue distribution, kidney [5, 8]: 4.02 percent dose/gram
- tissue distribution, liver [5, 8]: 2.16 percent dose/gram
- tissue distribution, lung [5, 8]: 2.07 percent dose/gram
- tissue distribution, muscle [5, 8]: 2.43 percent dose/gram
- tissue distribution, pancreas [5, 8]: 27.09 percent dose/gram
- tissue distribution, spleen [5, 8]: 4.13 percent dose/gram
- tissue distribution, tumor [5, 8]: 7.16 percent dose/gram

From patent US20130123618A1, “Imaging Agents” (priority 2008, published 2013)
